The test system of this experiment is behaviors of compound-treated mice. The experiment can be described thus: Neuropharmacological Assay (SmartCube). Format: in vivo. To be noted: for minimal effective dose: Mus musculus, ip, 0.25 h, dose having 50% or more total activity in SmartCube, i.p., read-out: MED (minimal effective dose); for AD: ADHD (probability that activity matches class) / AG: analgesic (probability that activity matches class) / AX: anxiolytic (probability that activity matches class) / CE: cognitive enhancer (probability that activity matches class) / DP: anti-depressant (probability that activity matches class) / MS: mood stabilizer (probability that activity matches class) / PS: anti-psychotic (probability that activity matches class) / SD: sedative hypnotic (probability that activity matches class) / UN: uncharacterized CNS activity (probability that activity matches class): i.p. 15 min before behavioral test, most efficacious dose(s) of 3 doses. The source says: Neuropharmacological Assay (SmartCube™)
Neurosci. 2011 Sep. 9; 5:103 (doi: 10.3389/fnins.2011.00103) (“Roberds”). As reported in Roberds, because psychiatric diseases generally result from disorders of cell-cell communication or circuitry, intact systems are useful in detecting improvement in disease-relevant endpoints. These endpoints are typically behavioral in nature, often requiring human observation and interpretation. To facilitate testing of multiple compounds for behavioral effects relevant to psychiatric disease, PsychoGenics, Inc. (Tarrytown, N.Y., “PGI”) developed SmartCube™, an automated system in which behaviors of compound-treated mice are captured by digital video and analyzed with computer algorithms. (D. Brunner et al., Drug Discov. Today 2002, 7:S107-S112). PGI Analytical Systems uses data from SmartCube™ to compare the behavioral signature of a test compound to a database of behavioral signatures obtained using a large set of diverse reference compounds. (The composition of the database as well as validation of the method is further described in Roberds). In this way, the neuropharmacological effects of a test compound can be predicted by similarity to major classes of compounds, such as antipsychotics, anxiolytics and antidepressants.
The SmartCube™ system produces an activity signature indicating the probability that the activity of the test compound at the administered dose matches a given class of neuropharmacological agents. (See, e.g., Roberds, FIGS. 2 and 3). The test compound is simultaneously compared against multiple classes of agents; thus, a separate probability is generated for each behavioral effect measured (e.g., anxiolytic activity, analgesic activity, etc.). In the table below, these probabilities are reported for each behavioral effect measured as follows:
Provided compounds were dissolved in a mixture of Pharmasolve™ (N-methyl-2-pyrrolidone), polyethylene glycol and propylene glycol, and were injected i.p. 15 min. before the behavioral test. For each compound, injections were administered at 3 different doses. For each behavioral effect measured, results for the most efficacious dose(s) are presented. In the table below, DP: anti-depressant; AX: anxiolytic; SD: sedative hypnotic; PS: anti-psychotic; MS: mood stabilizer; AD: ADHD; CE: cognitive enhancer; AG: analgesic; UN: uncharacterized CNS activity.
The potency of many of the compounds in the table was also determined in the SmartCube™ system. Test compounds were routinely examined at dose levels of 0.3, 1, 3 10 and 30 mg per kg (mpk), although the dose range was increased or decreased if necessary to obtain a full dose response curve. A compound's minimal effective dose (MED) is a measure of the compounds potency. The MED was defined as the dose (in mpk) having 50% or more total activity in SmartCube.

Structures are written as SMILES. Where a name gives a salt, the structure may show the parent alone.

The term minimal effective dose denotes the smallest amount tested that counted as effective. Regarding `NC[C@H]1OCc2c(-c3ccncc3)cccc21` (single isomer, unassigned) [Compound 38, hydrochloride salt], the minimal effective dose is not above 3 mg/kg, the “AD: ADHD (probability that activity matches class)” value (“AD: ADHD” for short) is given as “++ (5% ≤ ++ <25%)”, the “AG: analgesic (probability that activity matches class)” value (shortened to “AG: analgesic”) is listed as “++ (5% ≤ ++ <25%)” and the “AX: anxiolytic (probability that activity matches class)” value (“AX: anxiolytic” for short) is “+++ (25% ≤ +++ <50%)”. The “CE: cognitive enhancer (probability that activity matches class)” value (“CE: cognitive enhancer” for short) is “+ (LOQ ≤ + <5%)”, the “DP: anti-depressant (probability that activity matches class)” value (“DP: anti-depressant” for short) is listed as “++++ (50% ≤ ++++)”, the “MS: mood stabilizer (probability that activity matches class)” value (from here on “MS: mood stabilizer”) was “+ (LOQ ≤ + <5%)” and the “PS: anti-psychotic (probability that activity matches class)” value (from here on “PS: anti-psychotic”) is on record as “+ (LOQ ≤ + <5%)”. The “SD: sedative hypnotic (probability that activity matches class)” value (“SD: sedative hypnotic” for short) is reported as “++ (5% ≤ ++ <25%)” and the “UN: uncharacterized CNS activity (probability that activity matches class)” value (“UN: uncharacterized CNS activity” below) is recorded as “++ (5% ≤ ++ <25%)”.

In the case of `CNC[C@@H]1OCc2c(-c3ccncc3)cccc21` (single isomer, unassigned) [Compound 39, hydrochloride salt], the minimal effective dose was not above 3 mg/kg, the “AD: ADHD” value is reported as “++ (5% ≤ ++ <25%)”, the “AG: analgesic” value is listed as “+ (LOQ ≤ + <5%)” and the “AX: anxiolytic” value is “++ (5% ≤ ++ <25%)”. For the same compound, the “CE: cognitive enhancer” value is given as “+ (LOQ ≤ + <5%)”, the “DP: anti-depressant” value was “++++ (50% ≤ ++++)”, the “MS: mood stabilizer” value is on record as “+ (LOQ ≤ + <5%)” and the “PS: anti-psychotic” value was “+ (LOQ ≤ + <5%)”. Also, the “SD: sedative hypnotic” value is listed as “++ (5% ≤ ++ <25%)” and the “UN: uncharacterized CNS activity” value was “+ (LOQ ≤ + <5%)”.

Take `NC[C@@H]1OCc2c(-c3ccccn3)cccc21` (single isomer, unassigned) [Compound 41]: the minimal effective dose was 10 to 30 mg/kg, the “AD: ADHD” value is on record as “+ (LOQ ≤ + <5%)”, the “AG: analgesic” value is reported as “+ (LOQ ≤ + <5%)” and the “AX: anxiolytic” value is “++ (5% ≤ ++ <25%)”. The “CE: cognitive enhancer” value is reported as “++ (5% ≤ ++ <25%)”, the “DP: anti-depressant” value is “++ (5% ≤ ++ <25%)”, the “MS: mood stabilizer” value is recorded as “+ (LOQ ≤ + <5%)” and the “PS: anti-psychotic” value is reported as “+ (LOQ ≤ + <5%)”. The “SD: sedative hypnotic” value is on record as “++ (5% ≤ ++ <25%)” and the “UN: uncharacterized CNS activity” value was “++++ (50% ≤ ++++)”.

As to `NC[C@H]1OCc2c(-c3ccccn3)cccc21` (single isomer, unassigned) [Compound 42], the minimal effective dose lay in the range of 10 to 30 mg/kg, the “AD: ADHD” value is recorded as “+ (LOQ ≤ + <5%)”, the “AG: analgesic” value is on record as “+++ (25% ≤ +++ <50%)” and the “AX: anxiolytic” value was “++ (5% ≤ ++ <25%)”. Also, the “CE: cognitive enhancer” value is given as “++ (5% ≤ ++ <25%)”, the “DP: anti-depressant” value is reported as “++ (5% ≤ ++ <25%)”, the “MS: mood stabilizer” value is “+ (LOQ ≤ + <5%)” and the “PS: anti-psychotic” value is given as “+ (LOQ ≤ + <5%)”. For the same compound, the “SD: sedative hypnotic” value is “+ (LOQ ≤ + <5%)” and the “UN: uncharacterized CNS activity” value was “++ (5% ≤ ++ <25%)”.

For `CNC[C@@H]1OCCc2c(-c3ccccn3)cccc21` (single isomer, unassigned) [Compound 43, hydrochloride salt], the minimal effective dose lay in the range of 10 to 30 mg/kg, the “AD: ADHD” value is reported as “+ (LOQ ≤ + <5%)”, the “AG: analgesic” value is reported as “+ (LOQ ≤ + <5%)” and the “AX: anxiolytic” value is on record as “++ (5% ≤ ++ <25%)”. Also, the “CE: cognitive enhancer” value is listed as “+ (LOQ ≤ + <5%)”, the “DP: anti-depressant” value was “++ (5% ≤ ++ <25%)”, the “MS: mood stabilizer” value is listed as “+ (LOQ ≤ + <5%)” and the “PS: anti-psychotic” value is “+ (LOQ ≤ + <5%)”. For the same compound, the “SD: sedative hypnotic” value is on record as “+ (LOQ ≤ + <5%)” and the “UN: uncharacterized CNS activity” value is reported as “+++ (25% ≤ +++ <50%)”.

Regarding `CNC[C@H]1OCCc2c(-c3ccccn3)cccc21` (single isomer, unassigned) [Compound 44, hydrochloride salt], the minimal effective dose was not above 3 mg/kg, the “AD: ADHD” value is reported as “+ (LOQ ≤ + <5%)”, the “AG: analgesic” value is recorded as “++ (5% ≤ ++ <25%)” and the “AX: anxiolytic” value is reported as “++ (5% ≤ ++ <25%)”. The “CE: cognitive enhancer” value was “+ (LOQ ≤ + <5%)”, the “DP: anti-depressant” value is given as “++++ (50% ≤ ++++)”, the “MS: mood stabilizer” value is “+ (LOQ ≤ + <5%)” and the “PS: anti-psychotic” value is “+ (LOQ ≤ + <5%)”. Further, the “SD: sedative hypnotic” value is “+ (LOQ ≤ + <5%)” and the “UN: uncharacterized CNS activity” value is recorded as “+ (LOQ ≤ + <5%)”.

`NC[C@@H]1OCCc2c(-c3ccccn3)cccc21` (single isomer, unassigned) [Compound 45, hydrochloride]: the minimal effective dose was in the range of 10 to 30 mg/kg, the “AD: ADHD” value is on record as “+ (LOQ ≤ + <5%)”, the “AG: analgesic” value was “++ (5% ≤ ++ <25%)” and the “AX: anxiolytic” value is reported as “++ (5% ≤ ++ <25%)”. Further, the “CE: cognitive enhancer” value is recorded as “+ (LOQ ≤ + <5%)”, the “DP: anti-depressant” value is recorded as “++ (5% ≤ ++ <25%)”, the “MS: mood stabilizer” value is listed as “+ (LOQ ≤ + <5%)” and the “PS: anti-psychotic” value is recorded as “+ (LOQ ≤ + <5%)”. Besides, the “SD: sedative hypnotic” value is given as “+ (LOQ ≤ + <5%)” and the “UN: uncharacterized CNS activity” value is reported as “+++ (25% ≤ +++ <50%)”.

On to `NC[C@H]1OCCc2c(-c3ccccn3)cccc21` (single isomer, unassigned) [Compound 46, hydrochloride], for which the minimal effective dose is 10 to 30 mg/kg, the “AD: ADHD” value is reported as “+ (LOQ ≤ + <5%)”, the “AG: analgesic” value is given as “+ (LOQ ≤ + <5%)” and the “AX: anxiolytic” value is on record as “++ (5% ≤ ++ <25%)”. In addition, the “CE: cognitive enhancer” value is given as “+ (LOQ ≤ + <5%)”, the “DP: anti-depressant” value was “++ (5% ≤ ++ <25%)”, the “MS: mood stabilizer” value is listed as “+ (LOQ ≤ + <5%)” and the “PS: anti-psychotic” value is on record as “+ (LOQ ≤ + <5%)”. Besides, the “SD: sedative hypnotic” value is on record as “+ (LOQ ≤ + <5%)” and the “UN: uncharacterized CNS activity” value was “++++ (50% ≤ ++++)”.

Regarding `CCNC[C@@H]1OCCc2c(-c3ccncc3)cccc21` (single isomer, unassigned) [Compound 66, hydrochloride salt], the minimal effective dose was in the range of 10 to 30 mg/kg, the “AD: ADHD” value is “+ (LOQ ≤ + <5%)”, the “AG: analgesic” value is listed as “+ (LOQ ≤ + <5%)” and the “AX: anxiolytic” value was “++ (5% ≤ ++ <25%)”. Also, the “CE: cognitive enhancer” value is listed as “+ (LOQ ≤ + <5%)”, the “DP: anti-depressant” value was “++ (5% ≤ ++ <25%)”, the “MS: mood stabilizer” value is “+ (LOQ ≤ + <5%)” and the “PS: anti-psychotic” value is reported as “+ (LOQ ≤ + <5%)”. Moreover, the “SD: sedative hypnotic” value is “+ (LOQ ≤ + <5%)” and the “UN: uncharacterized CNS activity” value is “+ (LOQ ≤ + <5%)”.

These data come from patent US10780074B2, “Compounds and uses thereof” (Sunovion Pharmaceuticals Inc., priority 2017, dated 2020).
